Source: US7910559B2, “Decladinosyl-macrolides with anti-inflammatory activity” (GlaxoSmithKline istrazivacki centar Zagreb d.o.o., priority 2005, dated 2011)
Like-named read-outs stand apart in the source and are kept apart here.

Assays:
Format in all cases: cell-based
human IL-6 = experiment: Inhibition of IL-6 production by stimulated human peripheral blood leukocytes in vitro (ELISA); details: Homo sapiens, Leukocyte, PBL, read-out: Percentage of inhibition of IL-6 production; for inhibition at 10 µM: compound 10 μM; for inhibition at 50 µM: compound 50 μM
Method in brief: (§1)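 Human PBL from healthy donors preincubated 2 h at 37 °C with compound, then stimulated overnight with 2 μg/mL LPS, 1 μg/mL PMA or 120 μg/mL zymosan. Supernatant cytokines measured by sandwich ELISA. % inhibition is relative to stimulated, untreated cells.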

[1] = system: human peripheral blood mononuclear cells (PBMC); experiment: Human peripheral blood mononuclear cell proliferation in vitro ((3H)thymidine incorporation); details: Homo sapiens, PBMC, read-out: Percentage of inhibition of proliferation of stimulated PBMC; for inhibition at 10 µM: compound 10 μM; for inhibition at 50 µM: compound 50 μM
Experimental: Substances, used in in vitro experiments, were dissolved in dimethyl sulfoxide (DMSO) (Kemika, Croatia) at concentrations of 50 mM and 10 mM and were further diluted to the final concentrations of […] in 1 mL Dulbecco's modified Eagle medium (DMEM) supplemented with 1% heat inactivated fetal bovine serum (FBS), 1% glutamax, 50 U/ml penicillin, 50 μg/ml streptomycin and 2.5 μg/mL Fungizone (amphotericin B). Media and all media supplements were purchased from Gibco, Australia, except FBS that was from Sigma, USA.
Heparinized peripheral blood was obtained from healthy donors, and peripheral blood mononuclear cells (PBMC) were isolated by Histopaque 1077 (Sigma, USA) density centrifugation at 400 g for 30 minutes. Collected PBMC were centrifuged in plasma at 400 g/10 min, resuspended and washed in RPMI 1640 (Institute of Immunology, Croatia) by centrifugation.
Influence of substances at two different concentrations (50 μM and 10 μM) on proliferation of human peripheral blood mononuclear cells (PBMC) was assessed.
Heparinized peripheral blood was obtained from healthy donors, and PBMC were isolated by Histopaque 1077 (Sigma, USA) density centrifugation at 400 g for 30 minutes. 5×10^4 cells/well were cultured for 3 days in the RPMI medium as described above, in the presence (positive control) or absence (negative control) of stimulators [PHA (2.5 μg/mL) (Sigma, USA) or both PMA (10 ng/mL) (Sigma, USA) and ionomycin (500 ng/mL) (Calbiochem, USA)] and tested substances at 37° C. in 5% CO2 and 90% humidity. The cells were pulsed with 1 μCi of (^3H)thymidine (Amersham, USA) per well during the last 18 h of the cultures and were harvested on a 96-well filter (Packard Bioscience, USA) with a multiple cell harvester (Packard, USA). The incorporation of (^3H)thymidine in activated cells was measured by TopCount NXT (Packard, USA).
Inhibition of cell proliferation (as a percentage) was calculated using the following formula: % inhibition=(1−(^3H)thymidine incorporation expressed in counts per minute (cpm) in sample/(3H)thymidine incorporation expressed in cpm in positive control)×100 where “positive control” refers to stimulated samples not treated with substances.

human IL-8 = experiment: Inhibition of IL-8 production by stimulated human peripheral blood leukocytes in vitro (ELISA); details: Homo sapiens, Leukocyte, PBL, read-out: Percentage of inhibition of IL-8 production; for inhibition at 10 µM: compound 10 μM; for inhibition at 50 µM: compound 50 μM
Method in brief: as §1

human IL-1β = experiment: Inhibition of IL-1β production by stimulated human peripheral blood leukocytes in vitro (ELISA); details: Homo sapiens, Leukocyte, PBL, read-out: Percentage of inhibition of IL-1β production; for inhibition at 10 µM: compound 10 μM; for inhibition at 50 µM: compound 50 μM
Method in brief: as §1

human TNF-α = experiment: Inhibition of TNF-α production by stimulated human peripheral blood leukocytes in vitro (ELISA); details: Homo sapiens, Leukocyte, PBL, read-out: Percentage of inhibition of TNF-α production; for inhibition at 10 µM: compound 10 μM; for inhibition at 50 µM: compound 50 μM
Method in brief: as §1

THP-1 = details: human, 24 h
Experimental: (§2) Anti-inflammatory activity of compounds, i.e. observed inhibition of cytokine production and inhibition of proliferation in vitro, is not a consequence of their cytotoxicity.
(§3) Measurement of the succinate dehydrogenase activity in living cells was performed in order to assess the cytotoxicity of compounds of the invention. Cells were cultured for 24 hours in RPMI medium as described above at 37° C., in the presence of the tested compounds at concentrations of 50 μM and 12.5 μM. Afterwards, MTT [3-(4,5-dimethylthiazole-2-yl)-2,5-diphenyl tetrazolium bromide] (Promega, USA) as detection reagent was added and incubated for 0.5-2 hours. The amount of produced MTT-Formazan was determined spectrophotometrically at 490 nm (Mosmann, J. Immunol. Methods, 1983, 65: 55-63).
(§4) Percentage of viable cells was calculated using the following formula: % viable cells=[…]

Hep G2 = details: human, 24 h
Experimental: as §2, §3, §4

A549 = details: human, 24 h
Experimental: as §2, §3, §4

CC[C@H]1OC(=O)[C@H](C)[C@@H](OC(=O)CCN(CC)CC)[C@H](C)[C@@H](O[C@@H]2O[C@H](C)C[C@H](N(C)C)[C@H]2O)[C@](C)(OC)C[C@@H](C)C(=O)[C@H](C)[C@@H](O)[C@]1(C)O [Example 5, 3-O-(3-Diethylamino-propionyl)-3-O-decladinosyl-6-O-methyl-erythromycin A]
inhibition at 10 µM (human IL-6; LPS stimulation): 38%
inhibition at 50 µM (human IL-6; LPS stimulation): 100%
inhibition at 10 µM (human IL-6; PMA stimulation): 78%
inhibition at 50 µM (human IL-6; PMA stimulation): 100%
inhibition at 10 µM (human IL-6; zymosan stimulation): 51%
inhibition at 50 µM (human IL-6; zymosan stimulation): 100%
inhibition at 10 µM ([1]; PHA stimulation): 99%
inhibition at 50 µM ([1]; PHA stimulation): 100%
inhibition at 10 µM ([1]; PMA + ionomycin stimulation): 90%
inhibition at 50 µM ([1]; PMA + ionomycin stimulation): 100%
inhibition at 10 µM (human IL-8; LPS stimulation): 22%
inhibition at 50 µM (human IL-8; LPS stimulation): 95%
inhibition at 10 µM (human IL-8; PMA stimulation): 48%
inhibition at 50 µM (human IL-8; PMA stimulation): 83%
inhibition at 10 µM (human IL-8; zymosan stimulation): 48%
inhibition at 50 µM (human IL-8; zymosan stimulation): 100%
inhibition at 10 µM (human IL-1β; LPS stimulation): 75%
inhibition at 50 µM (human IL-1β; LPS stimulation): 80%
inhibition at 10 µM (human IL-1β; PMA stimulation): 91%
inhibition at 50 µM (human IL-1β; PMA stimulation): 100%
inhibition at 10 µM (human IL-1β; zymosan stimulation): 68%
inhibition at 50 µM (human IL-1β; zymosan stimulation): 100%
inhibition at 10 µM (human TNF-α; LPS stimulation): 3%
inhibition at 50 µM (human TNF-α; LPS stimulation): 92%
inhibition at 10 µM (human TNF-α; PMA stimulation): 29%
inhibition at 50 µM (human TNF-α; PMA stimulation): 100%
inhibition at 10 µM (human TNF-α; zymosan stimulation): 17%
inhibition at 50 µM (human TNF-α; zymosan stimulation): 100%
Percentage of viable cells after treatment (THP-1; 12.5 μM): 100%
Percentage of viable cells after treatment (THP-1; 50 μM): >80%
Percentage of viable cells after treatment (Hep G2; 12.5 μM): >86%
Percentage of viable cells after treatment (Hep G2; 50 μM): 100%
Percentage of viable cells after treatment (A549; 12.5 μM): 100%
Percentage of viable cells after treatment (A549; 50 μM): 100%

CC[C@H]1OC(=O)[C@H](C)[C@@H](O[C@H]2C[C@@](C)(OC)[C@@H](O)[C@H](C)O2)[C@H](C)[C@@H](O[C@@H]2O[C@H](C)C[C@H](N(C)C)[C@H]2O)[C@](C)(O)C[C@@H](C)CN(C)[C@H](C)[C@@H](O)[C@]1(C)O [azithromycin, reference compound]
inhibition at 10 µM (human IL-6; LPS stimulation): 15%
inhibition at 50 µM (human IL-6; LPS stimulation): 40%
inhibition at 10 µM (human IL-6; PMA stimulation): 0%
inhibition at 50 µM (human IL-6; PMA stimulation): 0%
inhibition at 10 µM (human IL-6; zymosan stimulation): 20%
inhibition at 50 µM (human IL-6; zymosan stimulation): 75%
inhibition at 10 µM ([1]; PHA stimulation): 5%
inhibition at 50 µM ([1]; PHA stimulation): 29%
inhibition at 10 µM ([1]; PMA + ionomycin stimulation): 9%
inhibition at 50 µM ([1]; PMA + ionomycin stimulation): 31%
inhibition at 10 µM (human IL-8; LPS stimulation): 0%
inhibition at 50 µM (human IL-8; LPS stimulation): 0%
inhibition at 10 µM (human IL-8; PMA stimulation): 0%
inhibition at 50 µM (human IL-8; PMA stimulation): 0%
inhibition at 10 µM (human IL-8; zymosan stimulation): 0%
inhibition at 50 µM (human IL-8; zymosan stimulation): 0%
inhibition at 10 µM (human IL-1β; LPS stimulation): 28%
inhibition at 50 µM (human IL-1β; LPS stimulation): 48%
inhibition at 10 µM (human IL-1β; PMA stimulation): 0%
inhibition at 50 µM (human IL-1β; PMA stimulation): 0%
inhibition at 10 µM (human IL-1β; zymosan stimulation): 20%
inhibition at 50 µM (human IL-1β; zymosan stimulation): 75%
inhibition at 10 µM (human TNF-α; LPS stimulation): 36%
inhibition at 50 µM (human TNF-α; LPS stimulation): 20%
inhibition at 10 µM (human TNF-α; PMA stimulation): 0%
inhibition at 50 µM (human TNF-α; PMA stimulation): 0%
inhibition at 10 µM (human TNF-α; zymosan stimulation): 6%
inhibition at 50 µM (human TNF-α; zymosan stimulation): 64%
Percentage of viable cells after treatment (THP-1; 12.5 μM): 100%
Percentage of viable cells after treatment (THP-1; 50 μM): >95%
Percentage of viable cells after treatment (Hep G2; 12.5 μM): 100%
Percentage of viable cells after treatment (Hep G2; 50 μM): >95%
Percentage of viable cells after treatment (A549; 12.5 μM): 100%
Percentage of viable cells after treatment (A549; 50 μM): 100%

CC[C@H]1OC(=O)[C@H](C)[C@@H](O[C@H]2C[C@@](C)(OC)[C@@H](O)[C@H](C)O2)[C@H](C)[C@@H](O[C@@H]2O[C@H](C)C[C@H](N(C)C)[C@H]2O)[C@](C)(OC)C[C@@H](C)C(=O)[C@H](C)[C@@H](O)[C@]1(C)O [clarithromycin, reference compound]
inhibition at 10 µM (human IL-6; LPS stimulation): 11%
inhibition at 50 µM (human IL-6; LPS stimulation): 0%
inhibition at 10 µM (human IL-6; PMA stimulation): 0%
inhibition at 50 µM (human IL-6; PMA stimulation): 0%
inhibition at 10 µM (human IL-6; zymosan stimulation): 28%
inhibition at 50 µM (human IL-6; zymosan stimulation): 0%
inhibition at 10 µM ([1]; PHA stimulation): 0%
inhibition at 50 µM ([1]; PHA stimulation): 7%
inhibition at 10 µM ([1]; PMA + ionomycin stimulation): 9%
inhibition at 50 µM ([1]; PMA + ionomycin stimulation): 14%
inhibition at 10 µM (human IL-8; LPS stimulation): 23%
inhibition at 50 µM (human IL-8; LPS stimulation): 0%
inhibition at 10 µM (human IL-8; PMA stimulation): 33%
inhibition at 50 µM (human IL-8; PMA stimulation): 0%
inhibition at 10 µM (human IL-8; zymosan stimulation): 0%
inhibition at 50 µM (human IL-8; zymosan stimulation): 0%
inhibition at 10 µM (human IL-1β; LPS stimulation): 0%
inhibition at 50 µM (human IL-1β; LPS stimulation): 0%
inhibition at 10 µM (human IL-1β; PMA stimulation): 26%
inhibition at 50 µM (human IL-1β; PMA stimulation): 33%
inhibition at 10 µM (human IL-1β; zymosan stimulation): 36%
inhibition at 50 µM (human IL-1β; zymosan stimulation): 59%
inhibition at 10 µM (human TNF-α; LPS stimulation): 0%
inhibition at 50 µM (human TNF-α; LPS stimulation): 0%
inhibition at 10 µM (human TNF-α; PMA stimulation): 0%
inhibition at 50 µM (human TNF-α; PMA stimulation): 0%
inhibition at 10 µM (human TNF-α; zymosan stimulation): 0%
inhibition at 50 µM (human TNF-α; zymosan stimulation): 0%
Percentage of viable cells after treatment (THP-1; 12.5 μM): 100%
Percentage of viable cells after treatment (THP-1; 50 μM): >95%
Percentage of viable cells after treatment (Hep G2; 12.5 μM): 100%
Percentage of viable cells after treatment (Hep G2; 50 μM): 100%
Percentage of viable cells after treatment (A549; 12.5 μM): 100%
Percentage of viable cells after treatment (A549; 50 μM): 100%
